# Test results published in article PMC12604929, “Tumor-specific cytotoxicity of pyrazole-based chalcone derivatives in human oral squamous cell carcinoma cell lines” (Turkish Journal of Biology, 2025).
# Numbered stars: 1 amine (or outer) side, 2 acyl side, 3 side chain; on linkers, the order of the positions; unused ones are H or OH. Bridge positions count the residues as written; N and C are the ends. Square brackets hold non-standard residues; d marks the D form. Peptide text beside a SMILES is read from it. I, II: the chains in the order shown. Actinocin(9to1) = Cc1c2oc3c(C)ccc(C(=O)[*:1])c3nc-2c(C(=O)[*:2])c(N)c1=O; NMeV = CN[C@H](C(=O)O)C(C)C; Sar = CNCC(=O)O
# Columns and labels:
# [1] = system: human OSCC cell lines (Ca9-22, HSC-2, HSC-3, HSC-4); assay: MTT cytotoxicity, four OSCC cell lines together (mean, TS, PSE, type of growth inhibition); assay type: cell-based; conditions: for CC50: Homo sapiens, mean of Ca9-22, HSC-2, HSC-3, HSC-4, read-out: CC50 OSCC mean (B); for type of growth inhibition on the OSCC cell lines: from dose-response curves, Figure 4, cytostatic = without complete cytotoxicity, cytotoxic = complete cell death; for TS (D/B) tumor-selectivity index: mean CC50 normal cells / mean CC50 OSCC cell lines
# Procedure: TS was calculated using the following equation: TS=mean CC50 against three normal oral cell types/mean CC50 against four OSCC cell lines (HGF, HPLF, HPC vs. Ca9-22, HSC-2, HSC-3, HSC-4). Since both Ca9-22 and HGF cells were derived from the gingival tissue, the relative sensitivity of these cells was also compared (as: CC50 against HGF/ CC50 against Ca9-22).
# PSE was calculated by the following equation: PSE=mean CC50 against three normal oral cell types/(CC50 against four OSCC cell lines)2 × 100 (HGF, HPLF, HPC vs. Ca9-22, HSC-2, HSC-3, HSC-4); and as CC50 against HGF/(CC50 against Ca9-22)2 × 100 using the pair of cell types from the same tissue (gingiva) (see Table 1).
# (§1) Estimation of CC50 values. […] The mean pCC50 values for normal cells and tumor cell lines were defined as N and T, respectively.
# [2] = system: HSC-2 cells (OSCC, tongue); assay: MTT cytotoxicity assay, HSC-2; conditions: Homo sapiens, HSC-2, 48 h, read-out: CC50 HSC-2
# Procedure: (§2) The viable cell number was determined in triplicate by the MTT method, following the approach adopted in previous studies ([Nagai et al., 2018]; [Shi et al., 2018] ). Briefly, the cells were incubated for 2 h with 0.2 mg/mL of MTT, and the formed formazan was dissolved with 0.1 mL of DMSO to determine the relative viable cell number at 560 nm.
# (§3) Cells were inoculated at 2×10^3 cells/0.1 ml in a 96-microwell plate. […] Cells were incubated further for 48 h and the relative viable cell number was then determined by the MTT method and expressed as the absorbance of the cell lysate at 560 nm, using a microplate reader (Infinite F50R; TECAN, Männedorf, Switzerland) [49, 50]. Control cells were treated with the same amounts of DMSO and the cell damage induced by DMSO was subtracted from that induced by test agents. The concentration of compound that reduced the viable cell number by 50% (CC50) was determined from the dose–response curve and the mean value of CC50 for each cell type was calculated from triplicate assays.
# (§4) Human oral squamous cell carcinoma (OSCC) cell lines [Ca9-22 (derived from gingival tissue); and HSC-2, HSC-3, HSC-4 (derived from tongue)] were purchased from Riken Cell Bank (Tsukuba, Japan). All of these cells were cultured at 37°C in DMEM supplemented with 10% heat-inactivated fetal bovine serum, 100 units/ml, penicillin G and 100 µg/ml streptomycin sulfate under a humidified 5% CO2 atmosphere. Cell morphology was checked periodically under a light microscope (EVOS FL; Thermo Fisher Scientific, Waltham, MA, USA).
# [3] = MTT cytotoxicity assay, HPLF; assay type: cell-based, human; conditions: female, human, normal oral cells, average of three determinations
# Procedure: as §2, §3
# (§5) All of these cells were cultured at 37°C in DMEM supplemented with 10% heat-inactivated fetal bovine serum, 100 units/ml, penicillin G and 100 µg/ml streptomycin sulfate under a humidified 5% CO2 atmosphere.
# [4] = system: HSC-3 cells (OSCC, tongue); assay: MTT cytotoxicity assay, HSC-3; assay type: cell-based, human; conditions: for CC50: Homo sapiens, HSC-3, OSCC, 48 h, MTT, average of three determinations
# Procedure: as §2, §3, §4
# [5] = MTT cytotoxicity, three normal oral cell types together (mean); assay type: cell-based, human; conditions: female, human; mean of HGF, HPLF, HPC; read-out: CC50 normal oral cells mean (D)
# Description: as §1
# [6] = system: HSC-4 cells (OSCC, tongue); assay: MTT cytotoxicity assay, HSC-4; assay type: cell-based, human; conditions: Homo sapiens, HSC-4, 48 h, average of three determinations
# Procedure: as §2, §3, §4
# [7] = MTT cytotoxicity assay, HGF; assay type: cell-based, human; conditions: human, human gingival fibroblasts (HGF), normal oral cells, average of three determinations
# Procedure: as §2, §3, §4
# [8] = system: Ca9-22 cells (OSCC, gingival tissue); assay: MTT cytotoxicity assay, Ca9-22; assay type: cell-based, human; conditions: for TS (C/A) tumor-selectivity index: CC50 HGF / CC50 Ca9-22 (both gingival); for PSE (C/A^2)x100 potency-selectivity expression: HGF vs Ca9-22 (both gingival); for CC50: Homo sapiens, Ca9-22, OSCC, 48 h, MTT, average of three determinations
# Procedure: as §2, §3, §4
# [9] = MTT cytotoxicity assay, HPC; assay type: cell-based, human; conditions: female, human, human pulp cells (HPC), normal oral cells, average of three determinations
# Procedure: as §2, §3, §5
# HSC-2 cells = assay: Cell-cycle analysis (propidium iodide, cell sorting); assay type: cell-based, human; conditions: HSC-2, 24 h, 1 μM; control 1.9 %
# Procedure: Cell-cycle analysis was performed following the process described in the literature ([Kantoh et al., 2010]; [Nagai et al., 2018]; [Shi et al., 2018]), details of which are presented in a supplementary file. Briefly, cells (approximately 10^6 in number) were fixed with paraformaldehyde in PBS(−) and treated with RNase A. After staining with propidium iodide in the presence of 0.01% Nonidet-40 to prevent cell aggregation, the cells were filtered through Falcon cell strainers and then subjected to cell sorting, analyzed with Cell Sorter Software (version 2.1.2) (SONY Imaging Products and Solution Inc., Kanagawa, Japan).
# HSC-2 cells were incubated for 24 h with actinomycin D (Act.D) (positive control of apoptosis induction) or MS4, 7, or 8, or without treatment (control), and subjected to cell cycle analysis. […] D (1 μM) (p < 0.05) from 1.9 % to 12.5%. […] The cell cycle analysis was performed only with HSC-2 cells; therefore, experiments with other OSCC cell lines should be conducted to support the generalization of our findings.
# Treated and untreated cells (approximately 10^6 cells) were harvested, fixed with 1% paraformaldehyde in PBS without calcium and magnesium ions [PBS(−)]. Fixed cells were then washed twice with PBS(−) and treated for 30 min with 400 μl of 0.2 mg/ml RNase A (preheated for 10 min at 100 °C to inactivate DNase) to degrade RNA. Cells were then washed twice with PBS(−) and stained for 15 min with 0.01% propidium iodide (PI) in the presence of 0.01% NP-40 in PBS(−) to prevent cell aggregation. After filtering through Falcon® cell strainers ([…]) (Corning, NY, USA) to remove aggregated cells, PI-stained cells were subjected to cell sorting (SH800 Series; SONY Imaging Products and Solutions Inc., Kanagawa, Japan). Cell-cycle analysis was performed with Cell Sorter Software version 2.1.2. (SONY Imaging Products and Solution Inc.).
SMILES,CC50 [1] [µM],type of growth inhibition on the OSCC cell lines [1],TS (D/B) tumor-selectivity index [1],CC50 [2] [µM],CC50 at 48 h [3] [µM],CC50 [4] [µM],CC50 at 48 h [5] [µM],CC50 [6] [µM],CC50 at 48 h [7] [µM],TS (C/A) tumor-selectivity index [8],PSE (C/A^2)x100 potency-selectivity expression [8],CC50 [8] [µM],CC50 at 48 h [9] [µM],subG1 cell population (HSC-2 cells) [%],increase of cytotoxicity against HSC-3 compared to MS4 ([4]; relative to unsubstituted phenyl derivative MS4)
"Cc1ccc(C(=O)/C=C/c2cn(-c3ccc(S(N)(=O)=O)cc3)nc2-c2ccccc2)cc1 [MS5, (E)-4-(4-(3-Oxo-3-(p-tolyl)prop-1-en-1-yl)-3-phenyl-1H-pyrazol-1-yl)benzenesulfonamide]",10.1,cytostatic effects,>19.1,0.9,> 400,34.7,> 192,3.1,145,88.8,5426,1.6,30.3,–,–
"O=c1[nH]cc(F)c(=O)[nH]1 [Compound 5-FU, 5-fluorouracil, reference compound]",–,cytostatic effects,> 28.6,–,–,–,–,–,–,> 30.3,–,–,–,–,–
"Cc1c2oc3c(C)ccc(C(=O)N[C@@H]4C(=O)N[C@H](C(C)C)C(=O)N5CCC[C@H]5C(=O)N(C)CC(=O)N(C)[C@@H](C(C)C)C(=O)O[C@@H]4C)c3nc-2c(C(=O)N[C@@H]2C(=O)N[C@H](C(C)C)C(=O)N3CCC[C@H]3C(=O)N(C)CC(=O)N(C)[C@@H](C(C)C)C(=O)O[C@@H]2C)c(N)c1=O [Act.D, actinomycin D, reference compound] (I: T[dV]P[Sar][NMeV] / II: T[dV]P[Sar][NMeV]; ester I:1-I:C, II:1-II:C; linker I:N-II:N via Actinocin(9to1))",–,–,–,–,–,–,–,–,–,–,–,–,–,12.5,–
"NS(=O)(=O)c1ccc(-n2cc(C=O)c(-c3ccccc3)n2)cc1 [MS3, 4-(4-formyl-3-phenyl-1H-pyrazol-1-yl) benzenesulfonamide]",48.6,cytotoxic effects,4.7,64,217,51.7,230,46.3,253,7.8,–,32.3,221,–,–
CN(C)C=NS(=O)(=O)c1ccc(-n2cc(C=O)c(-c3ccccc3)n2)cc1 [MS2],53.3,cytotoxic effects,4.5,41.3,262,74.3,241,63,245,7.1,–,34.3,214,–,–
"COc1ccc(C(=O)/C=C/c2cn(-c3ccc(S(N)(=O)=O)cc3)nc2-c2ccccc2)cc1OC [MS9, (E)-4-(4-(3-(3,4-Dimethoxyphenyl)-3-oxoprop-1-en-1-yl)-3-phenyl-1H-pyrazol-1-yl)benzenesulfonamide]",44.6,mixed effects,>9.0,50.3,> 400,35,> 400,83,> 400,>40.1,–,10,> 400,–,–
"COc1ccc(C(=O)/C=C/c2cn(-c3ccc(S(N)(=O)=O)cc3)nc2-c2ccccc2)cc1 [MS6, (E)-4-(4-(3-(4-Methoxyphenyl)-3-oxoprop-1-en-1-yl)-3-phenyl-1H-pyrazol-1-yl)benzenesulfonamide]",3.5,cytotoxic effects,33.9,4.1,99.7,3.6,120,3.3,209,66.5,2115,3.1,51.9,–,1.5–2 times
"C/C(=N\Nc1ccc(S(N)(=O)=O)cc1)c1ccccc1 [MS1, (E)-4-(2-(1-phenylethylidene)hydrazinyl)benzenesulfonamide]",25.9,cytostatic effects,4.5,14.3,246,53.7,116,15.7,50.7,2.5,–,20,51,–,–
"NS(=O)(=O)c1ccc(-n2cc(/C=C/C(=O)c3cccs3)c(-c3ccccc3)n2)cc1 [MS10, (E)-4-(4-(3-Oxo-3-(thiophen-2-yl)prop-1-en-1-yl)-3-phenyl-1H-pyrazol-1-yl)benzenesulfonamide]",1.86,mixed effects,25.9,0.38,121,4.63,48,1.78,16.6,26.4,4191,0.63,6.7,–,–
"COc1cccc2c1C(=O)c1c(O)c3c(c(O)c1C2=O)C[C@@](O)(C(=O)CO)C[C@@H]3O[C@H]1C[C@H](N)[C@H](O)[C@H](C)O1 [DXR, doxorubicin, reference compound]",0.18,cytotoxic effects,>54.9,0.12,> 10,0.29,> 9.7,0.09,> 10,>45.5,–,0.22,9.2,–,–
